Where two headings read alike, the source gives them in different places.
How the values were obtained:
Format in all cases: binding
Details in all cases: for remaining binding at 10 µM: read-out: Percent control
EPHB3 = target: T1, EPHB3 (Homo sapiens, UniProt P54753)
T1 construct: purchased DiscoveRx KINOMEscan
T1 sequence (P54753 34-998): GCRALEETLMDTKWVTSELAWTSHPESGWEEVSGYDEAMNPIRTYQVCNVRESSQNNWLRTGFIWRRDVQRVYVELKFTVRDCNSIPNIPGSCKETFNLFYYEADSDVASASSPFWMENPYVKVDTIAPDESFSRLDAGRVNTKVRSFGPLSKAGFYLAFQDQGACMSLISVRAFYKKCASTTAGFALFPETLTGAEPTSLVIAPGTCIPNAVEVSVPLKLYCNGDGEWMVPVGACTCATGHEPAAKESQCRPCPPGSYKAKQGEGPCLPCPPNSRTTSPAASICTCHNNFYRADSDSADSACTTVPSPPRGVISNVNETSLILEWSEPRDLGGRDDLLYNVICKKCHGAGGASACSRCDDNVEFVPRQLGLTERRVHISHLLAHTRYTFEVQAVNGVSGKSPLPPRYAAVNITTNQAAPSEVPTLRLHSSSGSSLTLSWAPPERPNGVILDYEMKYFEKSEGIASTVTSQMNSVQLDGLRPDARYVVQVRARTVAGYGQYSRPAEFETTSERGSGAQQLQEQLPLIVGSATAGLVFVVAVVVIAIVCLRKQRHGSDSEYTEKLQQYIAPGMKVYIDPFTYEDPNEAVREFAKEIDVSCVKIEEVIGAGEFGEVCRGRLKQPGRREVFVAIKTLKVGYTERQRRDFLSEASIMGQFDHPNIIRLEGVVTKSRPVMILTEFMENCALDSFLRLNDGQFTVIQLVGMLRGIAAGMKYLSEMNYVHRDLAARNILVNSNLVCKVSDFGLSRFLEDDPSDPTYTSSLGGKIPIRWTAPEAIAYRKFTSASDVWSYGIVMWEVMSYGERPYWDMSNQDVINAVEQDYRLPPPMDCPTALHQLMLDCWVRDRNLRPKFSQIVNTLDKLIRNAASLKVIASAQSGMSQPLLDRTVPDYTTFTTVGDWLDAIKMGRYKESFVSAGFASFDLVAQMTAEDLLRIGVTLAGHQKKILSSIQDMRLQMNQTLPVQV

SRMS = target: T2, SRMS (Homo sapiens, UniProt Q9H3Y6)
T2 construct: purchased DiscoveRx (KINOMEscan service)

TRKB = target: T3, TRKB (Homo sapiens, UniProt Q16620)
T3 construct: purchased DiscoveRx (KINOMEscan service)

EPHA3 = target: T4, EPHA3 (Homo sapiens, UniProt P29320)
T4 construct: purchased DiscoveRx KINOMEscan
T4 sequence (P29320 21-983): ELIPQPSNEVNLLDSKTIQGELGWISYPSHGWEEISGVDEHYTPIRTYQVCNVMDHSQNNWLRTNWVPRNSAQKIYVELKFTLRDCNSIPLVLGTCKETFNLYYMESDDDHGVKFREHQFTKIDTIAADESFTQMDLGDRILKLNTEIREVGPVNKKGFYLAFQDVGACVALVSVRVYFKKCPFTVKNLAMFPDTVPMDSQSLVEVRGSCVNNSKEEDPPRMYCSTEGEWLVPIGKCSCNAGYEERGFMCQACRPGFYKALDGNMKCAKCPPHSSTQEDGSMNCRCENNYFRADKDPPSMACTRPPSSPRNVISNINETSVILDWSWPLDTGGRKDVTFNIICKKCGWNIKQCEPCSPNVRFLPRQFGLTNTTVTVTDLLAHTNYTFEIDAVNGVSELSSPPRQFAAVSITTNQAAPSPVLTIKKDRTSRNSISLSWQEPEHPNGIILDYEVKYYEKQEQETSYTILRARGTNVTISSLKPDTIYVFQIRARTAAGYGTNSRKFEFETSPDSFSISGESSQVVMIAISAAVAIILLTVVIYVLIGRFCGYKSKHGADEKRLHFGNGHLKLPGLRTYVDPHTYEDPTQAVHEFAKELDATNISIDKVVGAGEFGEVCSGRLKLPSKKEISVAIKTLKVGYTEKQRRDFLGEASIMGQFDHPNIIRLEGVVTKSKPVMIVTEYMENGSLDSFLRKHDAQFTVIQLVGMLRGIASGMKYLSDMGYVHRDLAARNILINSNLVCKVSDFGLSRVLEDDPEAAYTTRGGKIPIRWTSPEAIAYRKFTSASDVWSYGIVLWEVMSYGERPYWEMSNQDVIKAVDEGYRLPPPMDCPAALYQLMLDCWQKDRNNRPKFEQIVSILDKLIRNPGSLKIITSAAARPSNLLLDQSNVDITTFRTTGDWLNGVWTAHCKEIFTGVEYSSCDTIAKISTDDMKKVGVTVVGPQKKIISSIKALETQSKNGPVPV

TEC = target: T5, TEC (Homo sapiens, UniProt P42680)
T5 construct: purchased DiscoveRx (KINOMEscan service)
T5 sequence (P42680 1-631): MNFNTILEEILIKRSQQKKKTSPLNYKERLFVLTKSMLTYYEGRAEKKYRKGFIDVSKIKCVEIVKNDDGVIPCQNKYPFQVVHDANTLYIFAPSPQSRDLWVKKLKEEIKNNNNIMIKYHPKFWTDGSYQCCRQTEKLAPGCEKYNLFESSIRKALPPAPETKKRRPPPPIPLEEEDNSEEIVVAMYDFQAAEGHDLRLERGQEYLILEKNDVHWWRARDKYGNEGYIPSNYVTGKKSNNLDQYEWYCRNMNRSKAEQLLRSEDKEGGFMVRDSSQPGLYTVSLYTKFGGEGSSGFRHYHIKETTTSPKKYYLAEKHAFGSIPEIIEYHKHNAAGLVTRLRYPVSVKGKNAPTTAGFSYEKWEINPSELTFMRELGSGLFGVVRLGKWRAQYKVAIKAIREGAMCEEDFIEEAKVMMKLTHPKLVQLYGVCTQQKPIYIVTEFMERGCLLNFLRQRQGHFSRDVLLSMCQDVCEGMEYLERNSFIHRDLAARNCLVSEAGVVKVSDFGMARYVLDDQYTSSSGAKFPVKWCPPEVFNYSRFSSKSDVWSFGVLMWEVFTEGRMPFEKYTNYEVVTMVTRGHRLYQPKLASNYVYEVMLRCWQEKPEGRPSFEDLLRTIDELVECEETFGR

T3 sequence (Q16620 32-822): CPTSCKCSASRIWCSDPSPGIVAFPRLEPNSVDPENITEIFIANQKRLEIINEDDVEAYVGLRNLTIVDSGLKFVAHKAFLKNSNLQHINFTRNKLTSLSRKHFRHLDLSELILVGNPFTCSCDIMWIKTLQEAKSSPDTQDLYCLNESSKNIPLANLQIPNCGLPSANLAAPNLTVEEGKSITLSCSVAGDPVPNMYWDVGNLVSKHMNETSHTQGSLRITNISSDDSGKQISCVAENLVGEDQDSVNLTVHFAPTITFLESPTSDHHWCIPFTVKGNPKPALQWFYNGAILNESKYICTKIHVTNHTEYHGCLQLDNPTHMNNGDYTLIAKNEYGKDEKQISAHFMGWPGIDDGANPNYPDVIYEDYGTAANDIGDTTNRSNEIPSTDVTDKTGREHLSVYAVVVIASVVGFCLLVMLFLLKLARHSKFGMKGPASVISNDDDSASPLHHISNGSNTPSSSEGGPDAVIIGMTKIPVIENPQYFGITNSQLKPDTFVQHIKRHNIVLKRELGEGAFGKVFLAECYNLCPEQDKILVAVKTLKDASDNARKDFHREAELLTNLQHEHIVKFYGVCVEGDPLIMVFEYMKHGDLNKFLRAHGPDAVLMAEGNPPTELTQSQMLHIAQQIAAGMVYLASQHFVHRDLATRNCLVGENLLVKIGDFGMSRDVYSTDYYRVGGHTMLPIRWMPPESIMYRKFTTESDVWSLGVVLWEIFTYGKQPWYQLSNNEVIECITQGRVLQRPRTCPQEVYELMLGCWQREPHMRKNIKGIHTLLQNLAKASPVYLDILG
T2 sequence (Q9H3Y6 whole entry): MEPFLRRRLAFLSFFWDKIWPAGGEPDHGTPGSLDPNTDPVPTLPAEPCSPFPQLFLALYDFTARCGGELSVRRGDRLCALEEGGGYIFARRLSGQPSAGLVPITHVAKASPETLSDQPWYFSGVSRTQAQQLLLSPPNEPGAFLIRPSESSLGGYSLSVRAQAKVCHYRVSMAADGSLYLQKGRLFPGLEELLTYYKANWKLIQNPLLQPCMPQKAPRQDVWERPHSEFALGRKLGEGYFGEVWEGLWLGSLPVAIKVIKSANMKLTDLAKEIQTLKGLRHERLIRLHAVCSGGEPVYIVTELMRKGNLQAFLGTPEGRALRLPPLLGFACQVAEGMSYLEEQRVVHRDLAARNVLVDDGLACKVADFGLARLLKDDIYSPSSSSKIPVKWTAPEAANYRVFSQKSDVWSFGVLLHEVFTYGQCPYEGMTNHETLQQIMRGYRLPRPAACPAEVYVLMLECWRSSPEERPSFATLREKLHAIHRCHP

Row | SMILES | Percent control (EPHB3; EPHB3, 10 μM) [%] | Percent control (SRMS; SRMS, 10 μM) [%] | Percent control (TRKB; TRKB, 10 μM) [%] | Percent control (EPHA3; EPHA3, 10 μM) [%] | Percent control (TEC; TEC, 10 μM) [%] | also measured
1 | Cc1ccc(NC(=O)c2ccc(CN3CCN(C)CC3)cc2)cc1Nc1nccc(-c2cccnc2)n1 [Imatinib, reference compound] | 100 | 100 | 100 | 100 | 100 | 
2 | Cc1ccc(NC(=O)c2ccc(CN3CCN(C)CC3)cc2)cc1Nc1nccc(-c2cccnc2)[n+]1[Pt-2]1([Cl])[NH2+]C2CCCCC2[NH2+]1 (stereo not drawn) [1b, oxaliplatin-imatinib] | 87 | 98 | 100 | 64 | 100 | 
3 | COc1cc2c(Nc3ccc(Br)cc3F)[n+]([Pt-2]3([Cl])[NH2+]C4CCCCC4[NH2+]3)cnc2cc1OCC1CCN(C)CC1 (stereo not drawn) [3b, oxaliplatin-vandetanib] | 100 | 95 | 72 | 30 | 100 | 
4 | C#Cc1cccc(Nc2c3cc(OCCOC)c(OCCOC)cc3nc[n+]2[Pt@SP2-2]([NH3+])([NH3+])[Cl])c1 [2a, cisplatin-erlotinib] | 88 | 94 | 95 | 60 | 72 | 
5 | COc1cc2c(Nc3ccc(Br)cc3F)ncnc2cc1OCC1CCN(C)CC1 [Vandetanib, reference compound] |  |  |  |  |  | remaining binding at 10 µM (EPHB3; EPHB3, 10 μM): 100%; remaining binding at 10 µM (SRMS; SRMS, 10 μM): 16%; remaining binding at 10 µM (TRKB; TRKB, 10 μM): 100%; remaining binding at 10 µM (EPHA3; EPHA3, 10 μM): 16.7%; remaining binding at 10 µM (TEC; TEC, 10 μM): 100%
6 | C#Cc1cccc(Nc2ncnc3cc(OCCOC)c(OCCOC)cc23)c1 [Erlotinib] |  |  |  |  |  | remaining binding at 10 µM (EPHB3): 100%; remaining binding at 10 µM (SRMS): 100%; remaining binding at 10 µM (TRKB): 100%; remaining binding at 10 µM (EPHA3): 19.4%; remaining binding at 10 µM (TEC): 100%

— article PMC4858680, “A platinum-based hybrid drug design approach to circumvent acquired resistance to molecular targeted tyrosine kinase inhibitors” (Scientific Reports, 2016)
